Entries after “also recorded” stand apart in the source; their conditions may differ.
System: patients with schizophrenia
Assay: Randomized, double-blind, placebo-controlled in-patient trial, 4-week treatment, PANSS
Type: in vivo, human
Procedure: For purposes of this example, Compound A refers to the compound of Formula I wherein X is —N(CH3)— and Y is —C(O)—; tosylate salt unless otherwise indicated. A randomized, double-blind, placebo-controlled, in-patient trial is performed. Four treatment arms, 4-week treatment duration, QAM dosing are performed as follows: 60 mg of Compound A; 120 mg of Compound A; positive control (4 mg Risperidone); and placebo. The primary outcome is measured by the change from baseline on Positive and Negative Syndrome Scale (PANSS) Total Score at Day 28. Secondary measures explore key differentiating features.
60 mg Compound A Treatment Arm receives 60 mg of Compound A once daily for 28 days. 120 mg Compound A Treatment Arm receives 60 mg Compound A on Study Day 1 followed by 120 mg Compound A once daily for 27 days. Risperidone Treatment Arm receives 2 mg risperidone on Study Day 1 followed by 4 mg risperidone once daily for 27 days. Placebo Treatment Arm receives placebo once daily for 28 days. All doses are administered in the morning with breakfast.
Key inclusion criteria: Clinical diagnosis of schizophrenia according to DSM-IV-TR is confirmed by modified SCID-CT. Screening Brief Psychiatric […] Scale (BPRS) score of 40 or greater (18-items scored 1-7 each). Minimum score of 4 or higher on at least two of the following positive items: suspiciousness, conceptual disorganization, hallucinatory behavior, unusual thought content. Current exacerbated episode lasts no longer than 4 weeks. Sufficient history and/or independent reporter must verify that current state is an exacerbated state for the individual. Prior response to antipsychotic therapy within the last 5 years, defined as clinically significant and documented decrease in delusions and/or hallucinations during a documented exacerbated episode (and at least 3 months prior exposure to antipsychotic therapy).
The trial has a high subject completion rate (74%) compared to an average of 62% completion rate in other 4-week antipsychotic trials. 19% discontinues during the study treatment period (during Day 1-28). 7% completes study treatment through Day 28, but are lost to follow up.

[1] = 60 mg, sub-group of patients with depression at baseline

Structure (SMILES)	Prosocial PANSS Factor change from baseline compared to placebo (60 mg)	general psychopathology subscale of the PANSS (60 mg)	items on the negative symptom and general psychopathology subscales consistent with improved social function (60 mg)	positive symptom subscale of the PANSS (60 mg)	Effect Size (Total PANSS) (60 mg Compound A)	LS Mean Difference from Placebo (Total PANSS, Day 28) (60 mg Compound A)	LS Mean Change from Baseline on Day 28 Total PANSS (±SE) using MMRM/ITT (60 mg Compound A (tosylate) once daily in the morning, 28 days, N = 76)	PANSS total score, result in words (60 mg once daily in the morning, after 28 days of treatment)	hyperprolactinemia, EPS/akathisia, weight gain, cardiovascular safety (60 mg once daily, 28 days)	negative symptoms (PANSS Negative Symptom Sub-Scale) [1]	total PANSS [1]	negative symptoms (PANSS Negative Symptom Sub-Scale) (60 mg, subgroup of patients with prominent negative symptoms at baseline)	depression as measured by the CDSS (60 mg, subgroup with CDSS score >6 at baseline)	Effect Size (Total PANSS) (120 mg Compound A)	LS Mean Difference from Placebo (Total PANSS, Day 28) (120 mg Compound A)	LS Mean Change from Baseline on Day 28 Total PANSS (±SE) using MMRM/ITT (120 mg Compound A (60 mg on Day 1, then 120 mg once daily 27 days), N = 80)	Effect Size (Total PANSS) (4 mg Risperidone)	LS Mean Difference from Placebo (Total PANSS, Day 28) (4 mg Risperidone)	LS Mean Change from Baseline on Day 28 Total PANSS (±SE) using MMRM/ITT (4 mg Risperidone (2 mg on Day 1, then 4 mg once daily 27 days), N = 75)	total PANSS and negative symptoms compared with the Compound of Formula I (risperidone arm, sub-group of patients with depression at baseline)
CN1CCN2c3c(cccc31)[C@@H]1CN(CCCC(=O)c3ccc(F)cc3)CC[C@@H]12 [Compound A]	significantly improve	statistically significantly improves	improves certain items	statistically significantly improves	0.4	−5.8	−13.2 ± 1.7	demonstrates antipsychotic efficacy; also recorded: statistically significant and clinically meaningful decrease	does not cause hyperprolactinemia, EPS/akathisia, weight gain or cardiovascular safety issues	robustly improves	robustly improves	improves negative symptoms qualitatively	significantly reduces depression	0.1	−0.9	−8.3 ± 1.7	–	–	–	–
Cc1nc2n(c(=O)c1CCN1CCC(c3noc4cc(F)ccc34)CC1)CCCC2 [Risperidone, reference compound]	–	–	–	–	–	–	–	–	–	–	–	–	–	–	–	–	0.4	−6.0	−13.4 ± 1.7	less effective

Source: patent US10960010B2, “Pharmaceutical compositions for sustained or delayed release” (INTRA-CELLULAR THERAPIES, INC., priority 2013, dated 2021)
